Data reported in US20150051283A1, “COMPOSITION AND METHOD FOR INHIBITION OF PKNG FROM MYCOBACTERIUM TUBERCULOSIS” (priority 2013, published 2015).

Experiments:
[1] = biological target: Xanthine oxidoreductase (XOR) (Homo sapiens, UniProt P47989); settings: reference [15]; cited from earlier work
[2] = biological target: T1, rabbit muscle GAPDH (Oryctolagus cuniculus, UniProt P46406); experiment: Reversibility of GAPDH inhibition by DTT (positive control); format: biochemical; settings: OA-NO2-inhibited GAPDH
T1 construct: rabbit muscle GAPDH as model protein; from tissue; host or cells: rabbit muscle
Protocol: FIG. 11A: PknG was inhibited by incubation with OA-NO2 (50 μM) in 70 mM ammonium bicarbonate, pH 8.0 at 25° C. for 10 min, as previously. Kinase activity of PknG inhibited by OA-NO2 was measured (PknG+OA-NO2). Subsequently, nitroalkylated samples were treated with DTT (42 mM) or GSH (24 mM) for 15 min at 25° C. and kinase activity was re-measured (PknG+OA-NO2+RSH). Activity recovery was expressed as a ratio between [activity of PknG+OA-NO2+RSH]/[activity PknG+OA-NO2] where 1 means no activity recovery after thiol-containing agent treatment. GAPDH was used as a positive control: after DTT treatment 90% of the initial activity was recovered representing a 12 fold increase in the enzyme activity after the RSH treatment. […] Three independent experiments were performed FIG. 11B: MALDI-TOF mass spectrum of peptides generated by tryptic digestion of PknG. Upper panel: untreated PknG, middle panel: PknG exposed to OA-NO2 and lower panel: idem middle panel+42 mM DTT. In each panel the native or nitroalkylated form of the peptide with the sequence 122-154 that includes the Rbx-Cys 128 and 131, are shown. […]
We have previously reported that nitrated fatty acids are capable to inhibit GAPDH activity by modification of nucleophilic amino acid residues in a thiol-reversible manner. […] PknG control activity was measured in the presence of the thiol-containing reagents. […]

[3] = biological target: PknGΔ74/TPR (Mycobacterium tuberculosis, UniProt P9WI73); format: biochemical
Sequence of PknGΔ74/TPR (P9WI73 whole entry, looked up, stated change not applied): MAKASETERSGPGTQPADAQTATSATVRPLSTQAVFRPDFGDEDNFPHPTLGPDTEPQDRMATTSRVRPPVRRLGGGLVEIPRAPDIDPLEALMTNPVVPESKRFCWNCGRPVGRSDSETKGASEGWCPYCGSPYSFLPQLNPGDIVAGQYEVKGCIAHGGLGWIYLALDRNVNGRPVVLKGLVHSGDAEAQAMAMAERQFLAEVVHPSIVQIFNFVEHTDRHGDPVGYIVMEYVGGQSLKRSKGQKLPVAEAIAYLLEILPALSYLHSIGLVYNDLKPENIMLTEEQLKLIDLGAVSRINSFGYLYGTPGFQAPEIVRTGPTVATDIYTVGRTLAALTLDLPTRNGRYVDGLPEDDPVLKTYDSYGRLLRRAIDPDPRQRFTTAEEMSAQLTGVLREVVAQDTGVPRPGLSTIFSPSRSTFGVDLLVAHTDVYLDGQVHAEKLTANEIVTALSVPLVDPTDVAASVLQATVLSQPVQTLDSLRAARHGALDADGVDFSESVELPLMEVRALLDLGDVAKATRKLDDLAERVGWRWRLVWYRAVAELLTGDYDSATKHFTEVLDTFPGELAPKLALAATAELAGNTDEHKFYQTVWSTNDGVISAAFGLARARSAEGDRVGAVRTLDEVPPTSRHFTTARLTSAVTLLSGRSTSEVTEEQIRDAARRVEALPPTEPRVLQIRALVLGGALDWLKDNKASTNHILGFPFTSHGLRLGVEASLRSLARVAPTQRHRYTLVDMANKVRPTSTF

T1 sequence (P46406 whole entry): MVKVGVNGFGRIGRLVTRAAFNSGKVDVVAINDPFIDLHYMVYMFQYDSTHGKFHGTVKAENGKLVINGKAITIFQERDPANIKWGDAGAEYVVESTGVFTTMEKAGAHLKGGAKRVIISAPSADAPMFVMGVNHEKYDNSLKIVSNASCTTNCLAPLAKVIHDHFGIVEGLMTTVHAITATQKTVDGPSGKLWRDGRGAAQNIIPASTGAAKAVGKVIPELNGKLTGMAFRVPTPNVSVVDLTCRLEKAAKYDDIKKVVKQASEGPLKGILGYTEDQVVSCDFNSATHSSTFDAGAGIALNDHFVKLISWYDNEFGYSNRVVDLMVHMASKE
Sequence of Xanthine oxidoreductase (XOR) (P47989 whole entry): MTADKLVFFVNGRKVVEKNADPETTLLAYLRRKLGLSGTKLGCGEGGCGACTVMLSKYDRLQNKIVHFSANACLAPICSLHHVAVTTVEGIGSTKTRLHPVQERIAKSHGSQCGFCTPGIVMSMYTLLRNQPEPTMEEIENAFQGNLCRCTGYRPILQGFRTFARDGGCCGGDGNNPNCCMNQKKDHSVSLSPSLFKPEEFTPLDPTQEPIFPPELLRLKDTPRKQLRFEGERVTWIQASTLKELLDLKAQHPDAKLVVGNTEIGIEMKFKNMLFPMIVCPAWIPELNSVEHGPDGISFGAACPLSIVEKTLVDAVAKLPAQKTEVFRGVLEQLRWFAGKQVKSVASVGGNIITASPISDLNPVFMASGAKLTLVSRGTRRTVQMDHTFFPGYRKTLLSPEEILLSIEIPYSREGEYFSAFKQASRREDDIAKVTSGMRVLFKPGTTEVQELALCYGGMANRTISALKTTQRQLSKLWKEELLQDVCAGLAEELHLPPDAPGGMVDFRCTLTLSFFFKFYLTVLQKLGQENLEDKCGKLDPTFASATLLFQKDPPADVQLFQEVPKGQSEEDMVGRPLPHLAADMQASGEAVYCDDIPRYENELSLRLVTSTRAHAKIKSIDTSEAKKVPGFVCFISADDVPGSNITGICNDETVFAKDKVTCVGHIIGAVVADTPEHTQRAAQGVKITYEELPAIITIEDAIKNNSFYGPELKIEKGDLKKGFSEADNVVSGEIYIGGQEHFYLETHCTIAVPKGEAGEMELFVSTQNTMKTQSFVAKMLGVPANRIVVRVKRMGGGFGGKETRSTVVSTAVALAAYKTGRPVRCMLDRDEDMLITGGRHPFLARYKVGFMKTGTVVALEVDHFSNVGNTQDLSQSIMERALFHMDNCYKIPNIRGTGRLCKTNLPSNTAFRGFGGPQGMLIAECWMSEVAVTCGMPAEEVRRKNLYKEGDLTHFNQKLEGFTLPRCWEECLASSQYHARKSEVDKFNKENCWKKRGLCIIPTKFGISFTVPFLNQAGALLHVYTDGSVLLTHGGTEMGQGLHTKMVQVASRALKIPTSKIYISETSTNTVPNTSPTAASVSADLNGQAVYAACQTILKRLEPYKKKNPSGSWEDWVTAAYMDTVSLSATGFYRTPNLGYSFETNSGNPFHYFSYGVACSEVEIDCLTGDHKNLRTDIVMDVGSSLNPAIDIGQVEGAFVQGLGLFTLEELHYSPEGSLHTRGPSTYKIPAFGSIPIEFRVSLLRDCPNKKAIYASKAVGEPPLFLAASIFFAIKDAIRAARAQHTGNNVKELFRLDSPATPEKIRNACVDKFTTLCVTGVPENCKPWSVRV

9- and 10-nitro-octadeca-9-cis-enoic acid [OA-NO2]
XOR inhibition, reversibility [1]: not reversed by thiol reagents
increase in GAPDH activity after RSH treatment [2]: 12 fold
initial GAPDH activity recovered after DTT treatment [2]: 90%
enzyme inhibition of PknGΔ74/TPR [3]: fully inhibited
